Literature values, collected in US20060177524A1, “Ocular irrigating solution” (University of Bristol, priority 1998, published 2006).

Key:
[1] = at 25° C.
[2] = system: endothelial Na^+K^+ ATPase; conditions: Geroski et al 1982-83, human and rabbit corneas

Compound	pKa [1]	Toxicity to endothelial Na^+K^+ ATPase [2]
O=S(=O)(O)CCCN1CCN(CCO)CC1 [EPPS, N-[2-hydroxyethyl]-piperazine-N′-[3-propanesulfonic acid]]	8.0	–
O=S(=O)(O)CCN1CCN(CCO)CC1 [HEPES, N-2-[hydroxyethyl]piperazine-N′-[2-ethanesulfonic acid]]	–	toxic
